Assay results reported in PubChem BioAssay (NCI).
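Dose response: 5 concentrations. Exposure: 48 h. Format: 96-well plates. Endpoint: linear interpolation; highest concentration if not reached. Definition used: TGI = concentration required for complete inhibition of growth.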

Key:
Assay in all cases: inhibition of tumour cell growth, NCI panel, 48 h
[1] = tested on: IGROV1 ovarian
[2] = tested on: SF-539 CNS
[3] = tested on: A498 renal
[4] = tested on: HCT-15 colon
[5] = tested on: CAKI-1 renal
[6] = tested on: MOLT-4 leukemia
[7] = tested on: SR leukemia
[8] = tested on: SK-OV-3 ovarian
[9] = tested on: SNB-19 CNS
[10] = tested on: EKVX NSCLC
[11] = tested on: MCF7 breast
[12] = tested on: NCI-H23 lung
[13] = tested on: SK-MEL-28 melanoma
[14] = tested on: NCI-H226 lung
[15] = tested on: ACHN renal
[16] = tested on: HT29 colon
[17] = tested on: T-47D breast
[18] = tested on: NCI-H460 lung
[19] = tested on: HOP-62 NSCLC
[20] = tested on: SW-620 colon
[21] = tested on: SK-MEL-2 melanoma
[22] = tested on: U251 CNS
[23] = tested on: MDA-MB-231 breast
[24] = tested on: TK-10 renal
[25] = tested on: HCC-2998 colon
[26] = tested on: MDA-MB-435
[27] = tested on: SK-MEL-5 melanoma
[28] = tested on: KM12 colon
[29] = tested on: SF-268 CNS
[30] = tested on: OVCAR-3 ovarian
[31] = tested on: NCI-H522 lung
[32] = tested on: COLO 205 colon
[33] = tested on: HL-60(TB) leukemia
[34] = tested on: LOX IMVI melanoma
[35] = tested on: OVCAR-5 ovarian
[36] = tested on: K-562 leukemia
[37] = tested on: HS 578T breast
[38] = tested on: RXF 393 renal
[39] = tested on: SF-295 CNS
[40] = tested on: OVCAR-8 ovarian
[41] = tested on: DU-145 prostate
[42] = tested on: SN12C renal
[43] = tested on: UACC-62 melanoma
[44] = tested on: MALME-3M melanoma
[45] = tested on: SNB-75 CNS
[46] = tested on: RPMI-8226 leukemia
[47] = tested on: A549 NSCLC
[48] = tested on: 786-0 renal
[49] = tested on: OVCAR-4 ovarian
[50] = tested on: HOP-92 NSCLC
[51] = tested on: UO-31 renal
[52] = tested on: CCRF-CEM leukemia
[53] = tested on: PC-3 prostate
[54] = tested on: HCT-116 colon
[55] = tested on: NCI/ADR-RES ovarian
[56] = tested on: MDA-N
[57] = tested on: M14 melanoma
[58] = tested on: UACC-257 melanoma
[59] = tested on: BT-549 breast

COc1cc(C(C[N+](=O)[O-])SC(C)=O)ccc1OCc1ccccc1 (stereo unspecified)
TGI [1]: 7.36 µM | TGI [2]: 4.87 µM | TGI [3]: 15.4 µM | TGI [4]: 9.11 µM | TGI [5]: 27.7 µM | TGI [6]: 5.52 µM | TGI [7]: 4.86 µM | TGI [8]: 29.6 µM | TGI [9]: 20.9 µM | TGI [10]: 37.9 µM | TGI [11]: 10.7 µM | TGI [12]: 12.3 µM | TGI [13]: 6.79 µM | TGI [14]: 18.1 µM | TGI [15]: 24.7 µM | TGI [16]: > 20.9 µM | TGI [17]: 54.5 µM | TGI [18]: 25.1 µM | TGI [19]: 14.3 µM | TGI [20]: 10.6 µM | TGI [21]: 23.4 µM | TGI [22]: 22.7 µM | TGI [23]: 13.3 µM | TGI [24]: 14.7 µM | TGI [25]: 46.6 µM | TGI [26]: 10 µM | TGI [27]: 21.9 µM | TGI [28]: 14 µM | TGI [29]: > 100 µM | TGI [30]: 7.87 µM | TGI [31]: 13.9 µM | TGI [32]: 13 µM | TGI [33]: 1.57 µM | TGI [34]: 3.35 µM | TGI [35]: 29.6 µM | TGI [36]: 5.45 µM | TGI [37]: 12.1 µM | TGI [38]: 3.18 µM | TGI [39]: 10.3 µM | TGI [40]: 13.6 µM | TGI [41]: 27.1 µM | TGI [42]: 15.7 µM | TGI [43]: 8.68 µM | TGI [44]: 17.5 µM | TGI [45]: 32.4 µM | TGI [46]: 4.61 µM | TGI [47]: 25.4 µM | TGI [48]: 3.74 µM | TGI [49]: 27.7 µM | TGI [50]: 36.2 µM | TGI [51]: 10.3 µM | TGI [52]: > 100 µM | TGI [53]: 17.4 µM | TGI [54]: 8.26 µM | TGI [55]: > 38.3 µM | TGI [56]: 8.54 µM | TGI [57]: 11.2 µM | TGI [58]: 10.5 µM

[N-]=[N+]=Nc1ccc2c(c1)Sc1ccccc1N2CCCCN1CCN(Cc2ccc(C(=O)c3ccc(CSCC(N)C(=O)O)cc3)cc2)CC1 (stereo unspecified)
TGI [1]: 30.9 µM | TGI [3]: 37.7 µM | TGI [4]: 30.4 µM | TGI [5]: 67 µM | TGI [6]: > 100 µM | TGI [8]: > 100 µM | TGI [10]: > 100 µM | TGI [59]: 40.1 µM | TGI [11]: 54.4 µM | TGI [12]: 74.2 µM | TGI [13]: 3.8 µM | TGI [14]: 35.6 µM | TGI [15]: > 100 µM | TGI [16]: 30.7 µM | TGI [18]: > 100 µM | TGI [19]: 57.3 µM | TGI [20]: 4.79 µM | TGI [21]: 48.1 µM | TGI [22]: 26.4 µM | TGI [23]: 50.9 µM | TGI [24]: > 100 µM | TGI [25]: 59.2 µM | TGI [26]: 3.16 µM | TGI [27]: 34.9 µM | TGI [28]: 7.91 µM | TGI [29]: > 100 µM | TGI [30]: > 100 µM | TGI [31]: 33.7 µM | TGI [32]: 40.1 µM | TGI [33]: 30.8 µM | TGI [34]: 24.9 µM | TGI [35]: > 100 µM | TGI [36]: 44.9 µM | TGI [38]: > 100 µM | TGI [39]: 44.5 µM | TGI [41]: 67.7 µM | TGI [42]: > 100 µM | TGI [43]: 24.4 µM | TGI [46]: > 100 µM | TGI [48]: 24.4 µM | TGI [49]: > 100 µM | TGI [50]: 38.2 µM | TGI [51]: > 100 µM | TGI [52]: > 100 µM | TGI [53]: > 100 µM | TGI [54]: 29.5 µM | TGI [56]: 35.4 µM | TGI [58]: 69.2 µM
